# From patent US20220348590A1, “CYCLOOXYGENASE-2 INHIBITORS AND USES THEREOF” (The Board Institute, Inc., priority 2019, published 2022)
# Read-outs that look alike come from different tables or passages of the source.
# Tests used:
# ovine COX-1 (oCOX-1) = target: T1, ovine COX-1 (oCOX-1) (Ovis aries, UniProt P05979); assay: LCMS-based COX-1 enzymatic inhibition assay (PGE2 quantification); type: biochemical
# T1 construct: purchased Cayman Chemicals (Ann Arbor, Mich.)
# T1 sequence (P05979 25-600): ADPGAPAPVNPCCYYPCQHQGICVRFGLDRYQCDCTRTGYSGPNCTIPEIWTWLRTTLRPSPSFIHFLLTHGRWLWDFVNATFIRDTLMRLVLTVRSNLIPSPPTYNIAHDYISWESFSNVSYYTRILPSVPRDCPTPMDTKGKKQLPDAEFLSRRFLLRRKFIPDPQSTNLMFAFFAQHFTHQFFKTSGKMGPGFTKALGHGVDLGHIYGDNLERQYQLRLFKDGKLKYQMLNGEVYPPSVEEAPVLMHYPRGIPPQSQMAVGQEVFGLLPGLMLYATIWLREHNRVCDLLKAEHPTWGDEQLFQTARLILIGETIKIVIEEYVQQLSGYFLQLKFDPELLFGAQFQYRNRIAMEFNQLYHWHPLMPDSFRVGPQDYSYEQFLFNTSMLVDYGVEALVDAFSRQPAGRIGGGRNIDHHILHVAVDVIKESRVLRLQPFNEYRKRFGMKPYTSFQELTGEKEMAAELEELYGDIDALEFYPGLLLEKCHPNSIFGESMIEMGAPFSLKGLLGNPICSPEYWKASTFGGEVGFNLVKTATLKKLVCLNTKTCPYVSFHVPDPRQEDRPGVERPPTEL
# Method in brief: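 PGE2 formed from arachidonic acid (final 5 μM, 2 min) was measured by LC-MS-MS against DMSO controls. Enzyme (oCOX-1 0.1 μg or hCOX2 0.2 μg) with hematin/epinephrine cofactors at pH 8.0 was given 10 min at 37 °C with compound first. Twelve-point curves run three times gave IC50.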
# [1] = mouse plasma protein binding (PPB) assay; type: in vitro ADME; conditions: average, read-out: Mouse Plasma Protein Binding % Bound Avg (converted)
# Protocol: (§1) We have adapted a previously reported cyclooxygenase enzymatic assay utilizing LCMS quantification of PGE2 as the product of COX-1 and COX2 catalyzed conversion of arachidonic acid to evaluate the binding properties of newly synthesized ligands [Cao, 2011]. These optimized and miniaturized (384-well plates) LCMS-based COX-1 and COX2 enzymatic assays enabled us to quickly evaluate newly synthesized ligands for COX2 binding affinity and selectivity vs COX-1. Using a shorter ligand-enzyme incubation time in the LCMS assay (2 minutes vs 10 minutes) also permitted us to prioritize ligands with faster binding kinetics. Considering the relatively slow on-rate kinetics of known coxibs, due to their 3-step binding mechanism [Marnett, 2009], we believe that optimizing this critical parameter will be key to the successful development of a COX2 PET tracer. Using these enzymatic assays, we have evaluated>200 newly synthesized ligands against COX2 and >20 ligands against COX-1. Another critical property necessary for a good PET radiotracer is to have low non-specific binding (NSB) to increase the free fraction and maximize the signal to noise ratio. This property can be evaluated using in-vitro protein binding assays, and we have now evaluated>50 newly synthesized ligands in mouse, rat and human plasma protein binding (PPB) assays as well as >15 ligands in a mouse brain protein binding (BPB) assay.
# [2] = Mouse Plasma Protein Stability (% Remaining); type: in vitro ADME; conditions: average
# [3] = Rat Plasma Protein Stability (% Remaining); type: in vitro ADME; conditions: average
# MDR1 = assay: MDR1-MDCKII permeability and efflux; type: in vitro ADME; conditions: dog, MDCK-MDR1; for Papp A→B: read-out: MDR1-MCKII Papp A-B; for Papp B→A: read-out: MDR1-MCKII Papp B-A
# [4] = mouse brain protein binding (BPB) assay; type: in vitro ADME
# Protocol: as §1
# Rat Microsome Stability = type: in vitro ADME; conditions: rat microsomes
# [5] = in-vitro protein binding: free fraction / fraction unbound, matrix and species not given; type: in vitro ADME; conditions: compared to MC1; comparator not always stated
# Protocol: as §1
# [6] = 10 minutes, readout pge2/pge2d4 area ratio, average LLE
# [7] = 10 minutes, readout pge2/pge2d4 area ratio, average, read-out: COX1 10 minutes pge2/pge2d4 area ratio Avg. IC50
# [8] = 10 minutes, readout pge2 area (counts), average LLE
# [9] = 10 minutes, readout pge2 area (counts), average, read-out: COX1 10 minutes pge2 area (counts) Avg. IC50
Structure (SMILES),COX1 10 minutes pge2/pge2d4 area ratio Avg. LLE (ovine COX-1 (oCOX-1); [6]),IC50 (ovine COX-1 (oCOX-1); [7]),COX1 10 minutes pge2 area (counts) Avg. LLE (ovine COX-1 (oCOX-1); [8]),IC50 (ovine COX-1 (oCOX-1); [9]),fraction unbound [1],Mouse Plasma Protein Stability % Remaining Avg [2],Rat Plasma Protein Stability % Remaining Avg [3],efflux ratio (MDR1),Papp A→B (MDR1),Papp B→A (MDR1),IC50 (ovine COX-1 (oCOX-1)),fraction unbound [4],Rat Microsome Stability % Remaining Avg (Rat Microsome Stability),improvement in free fraction (fraction unbound) [5],"COX1 10 minutes pge2/pge2d4 area ratio Avg. LLE (ovine COX-1 (oCOX-1); 10 minutes, pge2/pge2d4 area ratio, head of this section not shown, inferred)","COX1 10 minutes pge2 area (counts) Avg. LLE (ovine COX-1 (oCOX-1); 10 minutes, pge2 area (counts), head of this section not shown, inferred)","IC50 (ovine COX-1 (oCOX-1); 10 minutes, pge2 area (counts), head of this section not shown, inferred, read-out: COX1 10 minutes pge2 area (counts) Avg. IC50)"
"CS(=O)(=O)c1ccc(-c2cccc(OCc3cccs3)n2)cc1 [Compound 1, 2-(4-methanesulfonylphenyl)-6-[(thiophen-2-yl)methoxy]pyridine]",1.251,11.5 µM,1.136,13.8 µM,0.004,119.5%,100%,0.9,33.7 ×10⁻⁶ cm/s,29.9 ×10⁻⁶ cm/s,–,–,–,–,–,–,–
CS(=O)(=O)c1ccc(-c2nc(NCc3cccs3)cc3ccoc23)cc1 [Compound 2],−0.046,–,−0.02512,49.6 µM,0.004,108%,98%,–,–,–,52 µM,–,–,–,–,–,–
CS(=O)(=O)c1ccc(-c2cc(F)cc(NCc3ccco3)n2)cc1 [Compound 14],1.4251,40.3 µM,1.516,32.7 µM,0.022,99%,104%,–,–,–,–,–,–,–,–,–,–
CS(=O)(=O)c1ccc(-c2ccc(F)c(NCc3ccco3)n2)cc1 [Compound 15],1.314,–,1.404,34.4 µM,–,–,127%,–,–,–,52 µM,–,–,–,–,–,–
CS(=O)(=O)c1ccc(-c2cccc(OCc3ccoc3)n2)cc1 [Compound 16],1.139,39.9 µM,1.072,46.5 µM,0.011,102%,97.9%,–,–,–,–,–,–,–,–,–,–
COc1ccc(NCc2cccs2)nc1-c1ccc(S(C)(=O)=O)cc1 [Compound 17],–,–,0.884,–,0.033,102%,100%,–,–,–,–,0.012,0.2%,–,–,–,–
CS(=O)(=O)c1ccc(-c2cncc(OCc3cccs3)n2)cc1 [Compound 19],2.582,10.4 µM,2.539,10.9 µM,0.02,92.8%,91.1%,–,–,–,–,–,–,–,–,–,–
Cc1occc1CNc1cccc(-c2ccc(S(C)(=O)=O)cc2)n1 [Compound 21],1.391,28.7 µM,1.134,–,–,–,100%,–,–,–,–,–,–,–,–,–,–
CS(=O)(=O)c1ccc(-c2cccc(NCc3ccc(F)o3)n2)cc1 [Compound 23],3.122,0.323 µM,3.085,0.417 µM,–,–,104%,–,–,–,–,–,–,–,–,–,–
CS(=O)(=O)c1ccc(-c2cccc(NCc3cccs3)n2)cc1 [Compound 24],–,34.7 µM,–,33.4 µM,0.016,114.1%,105.1%,–,–,–,–,–,6.9%,–,–,–,–
COc1ncc(NCc2cccs2)nc1-c1ccc(S(C)(=O)=O)cc1 [Compound 29],1.794,–,3.31,0.0484 µM,0.025,93.2%,114.5%,–,–,–,52 µM,–,2.2%,–,–,–,–
CS(=O)(=O)c1ccc(-c2ccc(F)c(NCc3ccoc3)n2)cc1 [Compound 33],1.418,33.3 µM,1.362,37.9 µM,–,–,128%,–,–,–,–,–,–,–,–,–,–
CS(=O)(=O)c1ccc(-c2cc(F)cc(NCc3ccoc3)n2)cc1 [Compound 34],1.4613,30.1 µM,1.484,28.7 µM,–,–,115%,–,–,–,–,–,–,–,–,–,–
"CS(=O)(=O)c1ccc(-c2cccc(/C=C\c3ccoc3)n2)cc1 [Compound 35, 2-[(Z)-2-(furan-3-yl)ethenyl]-6-(4-methanesulfonylphenyl)pyr]",1.089,22.4 µM,0.724,–,0.079,99.2%,94.1%,–,–,–,–,0.011,–,–,–,–,–
CS(=O)(=O)c1ccc(-c2cccc(NCc3ccco3)n2)cc1 [Compound 36],–,36.4 µM,–,29.7 µM,0.118,106%,102.8%,1,68.5 ×10⁻⁶ cm/s,67.9 ×10⁻⁶ cm/s,–,0.019,11.6%,~4 fold,–,–,–
COc1ncc(NCc2ccoc2)nc1-c1ccc(S(C)(=O)=O)cc1 [Compound 44],2.274,–,2.41,38.1 µM,0.045,105.7%,104.6%,1.2,39.6 ×10⁻⁶ cm/s,47.2 ×10⁻⁶ cm/s,52 µM,–,5.3%,–,–,–,–
"CS(=O)(=O)c1ccc(-c2cccc(NCc3ccoc3)n2)cc1 [Compound 47, N-(furan-3-ylmethyl)-6-(4-(methylsulfonyl)phenyl)pyridin-2-amine]",1.461,38.8 µM,–,–,0.07,107.5%,105.1%,0.9,50.8 ×10⁻⁶ cm/s,47.2 ×10⁻⁶ cm/s,–,0.022,8.2%,~4 fold,–,–,–
COc1cc(NCc2cccs2)nc(-c2ccc(S(C)(=O)=O)cc2)c1 [Compound 50],1.091,32.3 µM,0.9785,42 µM,0.031,98.9%,–,–,–,–,–,–,–,–,–,–,–
CS(=O)(=O)c1ccc(-c2cncc(NCc3cccs3)n2)cc1 [Compound 98],–,9.89 µM,–,–,–,–,–,1.7,49.7 ×10⁻⁶ cm/s,83.8 ×10⁻⁶ cm/s,–,0.02,20.3%,3 fold,2.943,2.879,10.7 µM
